Laboratory results from PubChem BioAssay (NCI).
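Five concentrations, 48 hours, 96-well plates. At the GI50, growth is halved. The concentration for full growth arrest is given as TGI.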

Key:
Assay in all cases: NCI tumour cell line growth inhibition, 48 h
EKVX NSCLC = tested on: EKVX NSCLC
OVCAR-8 ovarian = tested on: OVCAR-8 ovarian
NCI-H226 lung = tested on: NCI-H226 lung
MOLT-4 leukemia = tested on: MOLT-4 leukemia
SF-539 CNS = tested on: SF-539 CNS
SF-268 CNS = tested on: SF-268 CNS
BT-549 breast = tested on: BT-549 breast
TK-10 renal = tested on: TK-10 renal
SN12C renal = tested on: SN12C renal
SF-295 CNS = tested on: SF-295 CNS
LOX IMVI melanoma = tested on: LOX IMVI melanoma
KM12 colon = tested on: KM12 colon
MDA-MB-231 breast = tested on: MDA-MB-231 breast
HCT-116 colon = tested on: HCT-116 colon
786-0 renal = tested on: 786-0 renal
HS 578T breast = tested on: HS 578T breast
SK-MEL-28 melanoma = tested on: SK-MEL-28 melanoma
CAKI-1 renal = tested on: CAKI-1 renal
M14 melanoma = tested on: M14 melanoma
MALME-3M melanoma = tested on: MALME-3M melanoma
NCI/ADR-RES ovarian = tested on: NCI/ADR-RES ovarian
U251 CNS = tested on: U251 CNS
DU-145 prostate = tested on: DU-145 prostate
HCC-2998 colon = tested on: HCC-2998 colon
RPMI-8226 leukemia = tested on: RPMI-8226 leukemia
OVCAR-3 ovarian = tested on: OVCAR-3 ovarian
A498 renal = tested on: A498 renal
HL-60(TB) leukemia = tested on: HL-60(TB) leukemia
SNB-19 CNS = tested on: SNB-19 CNS
A549 NSCLC = tested on: A549 NSCLC
NCI-H460 lung = tested on: NCI-H460 lung
HOP-92 NSCLC = tested on: HOP-92 NSCLC
HT29 colon = tested on: HT29 colon
SNB-75 CNS = tested on: SNB-75 CNS
CCRF-CEM leukemia = tested on: CCRF-CEM leukemia
T-47D breast = tested on: T-47D breast
IGROV1 ovarian = tested on: IGROV1 ovarian
MDA-MB-435 = tested on: MDA-MB-435
SK-OV-3 ovarian = tested on: SK-OV-3 ovarian
K-562 leukemia = tested on: K-562 leukemia
UO-31 renal = tested on: UO-31 renal
NCI-H23 lung = tested on: NCI-H23 lung
HCT-15 colon = tested on: HCT-15 colon
OVCAR-5 ovarian = tested on: OVCAR-5 ovarian
NCI-H522 lung = tested on: NCI-H522 lung
HOP-62 NSCLC = tested on: HOP-62 NSCLC
PC-3 prostate = tested on: PC-3 prostate
ACHN renal = tested on: ACHN renal
SK-MEL-2 melanoma = tested on: SK-MEL-2 melanoma
UACC-62 melanoma = tested on: UACC-62 melanoma
UACC-257 melanoma = tested on: UACC-257 melanoma
SK-MEL-5 melanoma = tested on: SK-MEL-5 melanoma
OVCAR-4 ovarian = tested on: OVCAR-4 ovarian
COLO 205 colon = tested on: COLO 205 colon
RXF 393 renal = tested on: RXF 393 renal
MCF7 breast = tested on: MCF7 breast
SW-620 colon = tested on: SW-620 colon

In the case of `COC(=O)c1ccc([C@H]2c3[nH]c4ccccc4c3C[C@H](C(=O)OC)N2C(=O)CCl)cc1`, the GI50 (EKVX NSCLC) is reported as 0.82 µM, the TGI (EKVX NSCLC) is reported as 3.4 µM and the GI50 (OVCAR-8 ovarian) is reported as 1.36 µM. It also gave a TGI (OVCAR-8 ovarian) of 7.93 µM, a GI50 (NCI-H226 lung) of 2.21 µM and a TGI (NCI-H226 lung) of 5.94 µM. For the same compound, the GI50 (MOLT-4 leukemia) was 0.268 µM, the TGI (MOLT-4 leukemia) was 0.857 µM and the GI50 (SF-539 CNS) was 0.0899 µM. For the same compound, the TGI (SF-539 CNS) was 0.226 µM, the GI50 (SF-268 CNS) was 1.9 µM and the TGI (SF-268 CNS) was 4.61 µM. The GI50 (BT-549 breast) was 1.23 µM, the TGI (BT-549 breast) was 2.57 µM and the GI50 (TK-10 renal) was 2.32 µM. The TGI (TK-10 renal) was 7.66 µM, the GI50 (SN12C renal) was 1.26 µM and the TGI (SN12C renal) was 2.89 µM. It also gave a GI50 (SF-295 CNS) of 0.0804 µM, a TGI (SF-295 CNS) of 0.216 µM and a GI50 (LOX IMVI melanoma) of under 0.01 µM. The TGI (LOX IMVI melanoma) was under 0.01 µM, the GI50 (KM12 colon) was 1.03 µM and the TGI (KM12 colon) was 4.39 µM. For the same compound, the GI50 (MDA-MB-231 breast) was 0.109 µM, the TGI (MDA-MB-231 breast) was 0.551 µM and the GI50 (HCT-116 colon) was 1.47 µM. For the same compound, the TGI (HCT-116 colon) was 2.98 µM, the GI50 (786-0 renal) was under 0.01 µM and the TGI (786-0 renal) was under 0.0169 µM. For the same compound, the GI50 (HS 578T breast) was 1.48 µM, the TGI (HS 578T breast) was 5.98 µM and the GI50 (SK-MEL-28 melanoma) was 2.35 µM. The TGI (SK-MEL-28 melanoma) was 6.92 µM, the GI50 (CAKI-1 renal) was 0.262 µM and the TGI (CAKI-1 renal) was 2.51 µM. The GI50 (M14 melanoma) was 1.94 µM, the TGI (M14 melanoma) was 5.11 µM and the GI50 (MALME-3M melanoma) was 0.157 µM. The TGI (MALME-3M melanoma) was 0.438 µM, the GI50 (NCI/ADR-RES ovarian) was 0.0744 µM and the TGI (NCI/ADR-RES ovarian) was 0.333 µM. It also gave a GI50 (U251 CNS) of 0.641 µM, a TGI (U251 CNS) of 1.99 µM and a GI50 (DU-145 prostate) of 2.23 µM. For the same compound, the TGI (DU-145 prostate) was 12.3 µM, the GI50 (HCC-2998 colon) was 1.75 µM and the TGI (HCC-2998 colon) was 3.38 µM. For the same compound, the GI50 (RPMI-8226 leukemia) was 0.0405 µM, the TGI (RPMI-8226 leukemia) was 0.386 µM and the GI50 (OVCAR-3 ovarian) was 0.672 µM. For the same compound, the TGI (OVCAR-3 ovarian) was 2.12 µM, the GI50 (A498 renal) was 0.447 µM and the TGI (A498 renal) was 0.888 µM. For the same compound, the GI50 (HL-60(TB) leukemia) was 0.113 µM, the TGI (HL-60(TB) leukemia) was 0.301 µM and the GI50 (SNB-19 CNS) was 4.39 µM. It also gave a TGI (SNB-19 CNS) of 16 µM, a GI50 (A549 NSCLC) of 1.63 µM and a TGI (A549 NSCLC) of 10.5 µM. It also gave a GI50 (NCI-H460 lung) of 1.63 µM, a TGI (NCI-H460 lung) of 3.59 µM and a GI50 (HOP-92 NSCLC) of 0.023 µM. The TGI (HOP-92 NSCLC) was 0.063 µM, the GI50 (HT29 colon) was 0.298 µM and the TGI (HT29 colon) was 1.11 µM. It also gave a GI50 (SNB-75 CNS) of 0.334 µM, a TGI (SNB-75 CNS) of 0.843 µM and a GI50 (CCRF-CEM leukemia) of 0.0223 µM. It also gave a TGI (CCRF-CEM leukemia) of 0.0839 µM, a GI50 (T-47D breast) of 2.23 µM and a TGI (T-47D breast) of 13.3 µM. The GI50 (IGROV1 ovarian) was 0.0858 µM, the TGI (IGROV1 ovarian) was 0.277 µM and the GI50 (MDA-MB-435) was 2.74 µM. For the same compound, the TGI (MDA-MB-435) was 11.1 µM, the GI50 (SK-OV-3 ovarian) was 1.72 µM and the TGI (SK-OV-3 ovarian) was 3.59 µM. It also gave a GI50 (K-562 leukemia) of 1.97 µM, a TGI (K-562 leukemia) of over 28 µM and a GI50 (UO-31 renal) of 0.0283 µM. The TGI (UO-31 renal) was 0.108 µM, the GI50 (NCI-H23 lung) was 0.0549 µM and the TGI (NCI-H23 lung) was 0.375 µM. It also gave a GI50 (HCT-15 colon) of 1.04 µM, a TGI (HCT-15 colon) of 2.65 µM and a GI50 (OVCAR-5 ovarian) of 1.44 µM. For the same compound, the TGI (OVCAR-5 ovarian) was 3.65 µM, the GI50 (NCI-H522 lung) was 0.0197 µM and the TGI (NCI-H522 lung) was 0.0435 µM. For the same compound, the GI50 (HOP-62 NSCLC) was 0.997 µM, the TGI (HOP-62 NSCLC) was 4.44 µM and the GI50 (PC-3 prostate) was 0.845 µM. For the same compound, the TGI (PC-3 prostate) was 4.3 µM, the GI50 (ACHN renal) was 0.234 µM and the TGI (ACHN renal) was 2.17 µM. The GI50 (SK-MEL-2 melanoma) was 2.03 µM, the TGI (SK-MEL-2 melanoma) was 4.89 µM and the GI50 (UACC-62 melanoma) was 0.752 µM. The TGI (UACC-62 melanoma) was 2.21 µM, the GI50 (UACC-257 melanoma) was 3.87 µM and the TGI (UACC-257 melanoma) was 14.5 µM. The GI50 (SK-MEL-5 melanoma) was 2.3 µM, the TGI (SK-MEL-5 melanoma) was 5.93 µM and the GI50 (OVCAR-4 ovarian) was 2.5 µM. For the same compound, the TGI (OVCAR-4 ovarian) was 9.87 µM, the GI50 (COLO 205 colon) was 2.33 µM and the TGI (COLO 205 colon) was 6.14 µM. It also gave a GI50 (RXF 393 renal) of 0.074 µM, a TGI (RXF 393 renal) of 0.723 µM and a GI50 (MCF7 breast) of 1.75 µM. For the same compound, the TGI (MCF7 breast) was 4.95 µM, the GI50 (SW-620 colon) was 1.49 µM and the TGI (SW-620 colon) was 3.34 µM.
